# How the values were obtained:
# [1] = target: T1, Sodium channel protein type 9 subunit alpha (Homo sapiens, UniProt Q15858); assay: Blockade of Nav1.7 by electrophysiological patch clamp assay
# [2] = target: T1, Sodium channel protein type 9 subunit alpha; assay: Blockade of Nav1.7 by FLIPR TETRA sodium dye assay in presence of KCl salt
# T1 sequence (Q15858 whole entry): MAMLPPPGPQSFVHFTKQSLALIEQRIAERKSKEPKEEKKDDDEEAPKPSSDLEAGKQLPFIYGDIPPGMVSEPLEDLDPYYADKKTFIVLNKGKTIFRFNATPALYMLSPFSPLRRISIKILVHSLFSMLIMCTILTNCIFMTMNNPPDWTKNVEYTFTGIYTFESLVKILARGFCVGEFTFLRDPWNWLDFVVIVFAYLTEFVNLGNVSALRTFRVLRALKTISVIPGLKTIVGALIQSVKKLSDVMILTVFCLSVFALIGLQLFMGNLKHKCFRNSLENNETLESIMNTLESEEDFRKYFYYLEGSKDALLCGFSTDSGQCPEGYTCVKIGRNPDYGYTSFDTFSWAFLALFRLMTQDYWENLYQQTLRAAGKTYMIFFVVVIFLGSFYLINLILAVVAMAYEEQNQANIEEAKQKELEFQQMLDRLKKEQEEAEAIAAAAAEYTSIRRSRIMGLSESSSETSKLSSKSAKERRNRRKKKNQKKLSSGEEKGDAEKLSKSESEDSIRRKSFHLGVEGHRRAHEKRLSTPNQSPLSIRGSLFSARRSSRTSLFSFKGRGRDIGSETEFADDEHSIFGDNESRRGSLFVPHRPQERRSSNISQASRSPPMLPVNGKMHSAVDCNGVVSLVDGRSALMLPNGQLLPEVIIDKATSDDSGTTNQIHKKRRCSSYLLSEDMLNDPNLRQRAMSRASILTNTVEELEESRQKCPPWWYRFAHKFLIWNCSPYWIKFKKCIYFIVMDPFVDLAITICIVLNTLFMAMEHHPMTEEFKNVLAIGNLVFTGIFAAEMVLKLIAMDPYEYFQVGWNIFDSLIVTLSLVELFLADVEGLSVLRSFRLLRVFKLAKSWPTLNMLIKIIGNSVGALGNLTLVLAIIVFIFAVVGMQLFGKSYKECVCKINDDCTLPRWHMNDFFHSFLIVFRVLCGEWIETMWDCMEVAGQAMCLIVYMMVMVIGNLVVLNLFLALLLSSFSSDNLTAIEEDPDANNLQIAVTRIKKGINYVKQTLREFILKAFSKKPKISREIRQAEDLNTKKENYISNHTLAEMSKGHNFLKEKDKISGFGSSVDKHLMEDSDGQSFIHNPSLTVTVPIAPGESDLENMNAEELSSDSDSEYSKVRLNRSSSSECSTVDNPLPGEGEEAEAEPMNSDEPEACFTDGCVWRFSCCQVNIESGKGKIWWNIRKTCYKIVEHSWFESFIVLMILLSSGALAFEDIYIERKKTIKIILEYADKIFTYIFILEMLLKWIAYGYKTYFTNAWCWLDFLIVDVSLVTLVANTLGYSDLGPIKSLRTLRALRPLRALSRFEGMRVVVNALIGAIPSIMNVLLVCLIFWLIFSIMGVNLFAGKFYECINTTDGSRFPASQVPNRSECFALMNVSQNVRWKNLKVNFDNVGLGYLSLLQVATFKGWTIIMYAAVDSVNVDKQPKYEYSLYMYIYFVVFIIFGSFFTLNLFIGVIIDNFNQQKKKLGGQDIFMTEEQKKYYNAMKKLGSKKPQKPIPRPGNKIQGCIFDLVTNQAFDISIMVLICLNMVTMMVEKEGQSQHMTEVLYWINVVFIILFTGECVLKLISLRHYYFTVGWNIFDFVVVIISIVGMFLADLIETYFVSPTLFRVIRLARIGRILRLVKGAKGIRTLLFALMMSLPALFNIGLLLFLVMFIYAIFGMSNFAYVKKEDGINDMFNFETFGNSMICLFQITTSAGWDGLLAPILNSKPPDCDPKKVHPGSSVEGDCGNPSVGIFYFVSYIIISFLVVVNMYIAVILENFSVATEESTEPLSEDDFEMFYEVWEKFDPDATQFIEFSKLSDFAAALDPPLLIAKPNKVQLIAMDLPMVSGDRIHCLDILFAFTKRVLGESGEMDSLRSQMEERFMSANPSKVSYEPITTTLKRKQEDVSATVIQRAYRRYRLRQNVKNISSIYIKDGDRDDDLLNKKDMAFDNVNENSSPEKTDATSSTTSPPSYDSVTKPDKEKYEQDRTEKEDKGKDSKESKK
compound,measurement,setting,value
O=C(N[C@@H](CO)C(=O)Nc1cccc(-c2ccc(Oc3ccc(F)cc3)cc2)n1)c1ccccn1,Ki,[1],195 nM
same,IC50,[2],140 nM

# Source: ChEMBL document CHEMBL2151011, “Substituted pyridines as sodium channel blockers: patent highlight” (ACS Med Chem Lett, 2012)
